# Results from ChEMBL document CHEMBL1955793, “Integrated structure-based activity prediction model of benzothiadiazines on various genotypes of HCV NS5b polymerase (1a, 1b and 4) and its application in the discovery of new derivatives” (Bioorg Med Chem, 2012).
# The source made the active and inactive calls. The rule behind the calls is not given here.
# What was measured:
# [1] = Cytotoxicity against human HuH5.2 cells after 1.5 hrs by MTS assay; format: cell-based, Huh-5-2
# [2] = test system: Hepatitis C virus genotype 4; test: Inhibition of Hepatitis C virus genotype 4 NS5B polymerase at 10 uM
# [3] = test system: Hepatitis C virus; test: Inhibition of Hepatitis C virus genotype 1b NS5B polymerase; design: species or system Hepatitis C virus subtype 1b
# [4] = Inhibition of Hepatitis C virus genotype 1a NS5B polymerase; design: species or system Hepatitis C virus subtype 1a
# [5] = test system: Hepatitis C virus; test: Antiviral activity against Hepatitis C virus genotype 1b 1389 infected in human HuH5.2 cells assessed as inhibition of viral replication after 72 hrs by luciferase reporter gene assay; format: functional, organism-based, Hepacivirus hominis; conditions: genotype 1b 1389, Huh-5-2, 72 h
# [6] = test system: Hepatitis C virus; test: Inhibition of Hepatitis C virus genotype 1b 1389 NS5B polymerase; design: species or system Hepatitis C virus subtype 1b
Compound,inhibition [2],IC50 [3] [nM],IC50 [4] [nM],other results
O=c1c(C2=NS(=O)(=O)c3ccccc3N2)c(O)c2ccccc2n1NCc1nccs1,–,674,35800,–
CC(C)CCn1cc(C2=NS(=O)(=O)c3ccccc3N2)c2ccccc21,inactive,–,–,CC50 at 1.5 h [1]: > 50 µM; EC50 [5]: 19.7 µM
O=S1(=O)N=C(c2cn(Cc3ccccc3)c3ccccc23)Nc2ccccc21,inactive,–,–,CC50 at 1.5 h [1]: > 50 µM; EC50 [5]: 1.86 µM
O=c1c(C2=NS(=O)(=O)c3ccccc3N2)c(O)c2ccccc2n1NC1CCCC1,–,150,747,–
Cc1ccccc1CNn1c(=O)c(C2=NS(=O)(=O)c3ccccc3N2)c(O)c2ccccc21,–,481,6120,–
CCCCn1cc(C2=NS(=O)(=O)c3cc(Br)cnc3N2)c2ccccc21,inactive,–,–,CC50 at 1.5 h [1]: 21.9 µM; EC50 [5]: 5.89 µM
O=c1c(C2=NS(=O)(=O)c3ccccc3N2)c(O)c2ccccc2n1NCc1cccs1,–,125,2330,–
O=c1c(C2=NS(=O)(=O)c3ccccc3N2)c(O)c2ccccc2n1NCc1ccc(Br)cc1,–,4690,10400,–
O=c1c(C2=NS(=O)(=O)c3ccccc3N2)c(O)c2ccccc2n1NCc1ccccc1,–,129,5090,–
O=c1c(C2=NS(=O)(=O)c3ccccc3N2)c(O)c2ccccc2n1NCC1CCCCC1,–,150,2530,–
CC(C)n1cc(C2=NS(=O)(=O)c3ccccc3N2)c2ccccc21,inactive,–,–,–
CC(C)CCn1cc(C2=NS(=O)(=O)c3ccccc3N2)c2cc(Br)ccc21,inactive,–,–,CC50 at 1.5 h [1]: > 50 µM; EC50 [5]: 18.4 µM
CCCC(Nn1c(=O)c(C2=NS(=O)(=O)c3ccccc3N2)c(O)c2ccccc21)C(C)C (centres undefined),–,1130,6400,–
O=c1c(C2=NS(=O)(=O)c3ccccc3N2)c(O)c2ccccc2n1NC1CCCCC1,–,60,356,–
CCc1cc(CC[C@]2(C3CCCC3)CC(O)=C(Cc3nc4nc(C)cc(C)n4n3)C(=O)O2)cc(CC)n1 [FILIBUVIR],–,–,–,EC50 [5]: 0.041 µM
O=S1(=O)N=C(c2cn(Cc3ccccc3)c3ccccc23)Nc2ncc(Br)cc21,inactive,–,–,CC50 at 1.5 h [1]: > 50 µM; EC50 [5]: 20.2 µM
CC(C)CCNn1c(=O)c(C2=NS(=O)(=O)c3ccccc3N2)c(O)c2ccccc21,–,134,629,–
O=c1c(C2=NS(=O)(=O)c3ccccc3N2)c(O)c2ccccc2n1NCc1ccoc1,–,133,1550,–
Cc1ccsc1CNn1c(=O)c(C2=NS(=O)(=O)c3ccccc3N2)c(O)c2ccccc21,–,1190,15000,–
CC(C)Nn1c(=O)c(C2=NS(=O)(=O)c3ccccc3N2)c(O)c2ccccc21,–,640,6350,–
CCCC(CCC)Nn1c(=O)c(C2=NS(=O)(=O)c3ccccc3N2)c(O)c2ccccc21,–,1800,2240,–
Fc1ccccc1-c1nc2ccn(Cc3ccc(-c4ccc(C(F)(F)F)cc4C(F)(F)F)nn3)cc-2n1 [TEGOBUVIR],–,–,–,EC50 [5]: 0.0007 µM
O=c1c(C2=NS(=O)(=O)c3ccccc3N2)c(O)c2ccccc2n1NC1=CCOC=C1,–,439,4630,–

# The next lines start with results.
inhibition [2],IC50 [3] [nM],IC50 [4] [nM],Compound,other results
inactive,–,–,C=CCn1cc(C2=NS(=O)(=O)c3ccccc3N2)c2ccccc21,CC50 at 1.5 h [1]: > 50 µM
–,161,951,CCCCNn1c(=O)c(C2=NS(=O)(=O)c3ccccc3N2)c(O)c2ccccc21,–
inactive,–,–,CCCn1cc(C2=NS(=O)(=O)c3cc(Br)cnc3N2)c2ccccc21,CC50 at 1.5 h [1]: 16.6 µM; EC50 [5]: 2.96 µM
–,135,411,CC(C)(C)CCNn1c(=O)c(C2=NS(=O)(=O)c3ccccc3N2)c(O)c2ccccc21,–
–,212,8210,Cc1cccc(CNn2c(=O)c(C3=NS(=O)(=O)c4ccccc4N3)c(O)c3ccccc32)c1,–
inactive,–,–,O=S1(=O)N=C(c2cn(Cc3ccccc3)c3ccc(Br)cc23)Nc2ccccc21,–
inactive,–,–,C=CCn1cc(C2=NS(=O)(=O)c3cc(Br)cnc3N2)c2ccccc21,CC50 at 1.5 h [1]: > 50 µM; EC50 [5]: 25.4 µM
–,386,1890,CCCC(CC)Nn1c(=O)c(C2=NS(=O)(=O)c3ccccc3N2)c(O)c2ccccc21 (centres undefined),–
inactive,–,–,CCCn1cc(C2=NS(=O)(=O)c3ccccc3N2)c2ccccc21,CC50 at 1.5 h [1]: > 50 µM; EC50 [5]: 4.15 µM
–,75,1040,O=c1c(C2=NS(=O)(=O)c3ccccc3N2)c(O)c2ccccc2n1NCc1cccc(Br)c1,–
–,101,941,CC(C)CNn1c(=O)c(C2=NS(=O)(=O)c3ccccc3N2)c(O)c2ccccc21,–
–,469,6720,O=c1c(C2=NS(=O)(=O)c3ccccc3N2)c(O)c2ccccc2n1NCc1ccccc1Br,–
–,145,285,O=c1c(C2=NS(=O)(=O)c3ccccc3N2)c(O)c2ccccc2n1NCC1CC1,–
–,100,928,CCCCCNn1c(=O)c(C2=NS(=O)(=O)c3ccccc3N2)c(O)c2ccccc21,–
–,1450,4780,O=c1c(C2=NS(=O)(=O)c3ccccc3N2)c(O)c2ccccc2n1NCc1ccc(Cl)s1,–
inactive,–,–,CCCn1cc(C2=NS(=O)(=O)c3cc(I)ccc3N2)c2ccccc21,–
60%,–,–,CC(C)CCn1cc(C2=NS(=O)(=O)c3cc(NS(C)(=O)=O)ccc3N2)c2ccccc21,IC50 [6]: 1200 nM
60%,–,–,CS(=O)(=O)Nc1ccc2c(c1)S(=O)(=O)N=C(c1cn(Cc3ccccc3)c3ccccc13)N2,–
60%,–,–,CCCCn1cc(C2=NS(=O)(=O)c3cc(NS(C)(=O)=O)ccc3N2)c2cc(Br)ccc21,CC50 at 1.5 h [1]: 49.2 µM; EC50 [5]: 7.7 µM
–,1490,16500,CC(Nn1c(=O)c(C2=NS(=O)(=O)c3ccccc3N2)c(O)c2ccccc21)c1ccccc1 (centres undefined),–
inactive,–,–,CCCCn1cc(C2=NS(=O)(=O)c3ccccc3N2)c2ccccc21,CC50 at 1.5 h [1]: > 50 µM; EC50 [5]: 8.01 µM
inactive,–,–,Cc1c(C2=NS(=O)(=O)c3ccccc3N2)c2ccccc2n1Cc1ccccc1,–
inactive,–,–,CC(C)n1cc(C2=NS(=O)(=O)c3cc(Br)cnc3N2)c2ccccc21,–
inactive,–,–,CC(C)CCn1cc(C2=NS(=O)(=O)c3cc(Br)cnc3N2)c2ccccc21,CC50 at 1.5 h [1]: > 50 µM; EC50 [5]: 7.07 µM
inactive,–,–,CCCn1cc(C2=NS(=O)(=O)c3cc(Br)ccc3N2)c2ccccc21,–
–,108,278,O=c1c(C2=NS(=O)(=O)c3ccccc3N2)c(O)c2ccccc2n1NC1CCC1,–
inactive,–,–,CCCCn1cc(C2=NS(=O)(=O)c3ccccc3N2)c2cc(Br)ccc21,CC50 at 1.5 h [1]: 37.2 µM; EC50 [5]: 9.9 µM
–,217,1040,O=c1c(C2=NS(=O)(=O)c3ccccc3N2)c(O)c2ccccc2n1NC1CCCCCC1,–
–,120,2460,CCC(CC)Nn1c(=O)c(C2=NS(=O)(=O)c3ccccc3N2)c(O)c2ccccc21,–
–,305,3260,O=c1c(C2=NS(=O)(=O)c3ccccc3N2)c(O)c2ccccc2n1NCc1ccco1,–
